Measurements: patent US20250073244A1, “CRYSTALLINE FORMS OF PENTAAZA MACROCYCLIC RING COMPLEX” (Galera Labs, LLC, priority 2023, published 2025)

Tests used:
Format in all cases: physicochemical
[1] = Form E generation attempts via desolvation or heating
Source text: These attempts were not successful in providing Form E as a pure crystalline phase. Mixtures primarily composed of Form E and other unidentified crystalline phase(s) were obtained (FIG. 42).
Heat induced crystallization of amorphous GC4711 is described in Table 50.

[2] = Differential scanning calorimetry (DSC); settings: −30 to 250° C.
Method: DSC was performed using a Mettler-Toledo DSC3+ differential scanning calorimeter. A tau lag adjustment is performed with indium, tin, and zinc. The temperature and enthalpy are adjusted with octane, phenyl salicylate, indium, tin and zinc. The adjustment is then verified with octane, phenyl salicylate, indium, tin, and zinc. The sample was placed into a hermetically sealed aluminum DSC pan, the weight was accurately recorded, and the sample was inserted into the DSC cell. A weighed aluminum pan configured as the sample pan was placed on the reference side of the cell. The pan lid was pierced prior to sample analysis. […]
A cycling DSC experiment was conducted for as-received amorphous, in which the sample was analyzed from −25° C. to 200° C., then cooled to −25° C. and reheated to 250° C. at 10° C./min.

[3] = X-ray powder diffraction (XRPD)
Method: XRPD patterns were collected with a PANalytical X'Pert PRO MPD or a PANalytical Empyrean diffractometer using an incident beam of Cu radiation produced using an Optix long, fine-focus source. An elliptically graded multilayer mirror was used to focus Cu Kα X-rays through the specimen and onto the detector. Prior to the analysis, a silicon specimen (NIST SRM 640e or 640f) was analyzed to verify the observed position of the Si 111 peak is consistent with the NIST-certified position. A specimen of the sample was sandwiched between 3-μm-thick films and analyzed in transmission geometry. […]
XRPD patterns were collected with a PANalytical X'Pert PRO MPD diffractometer using an incident beam of Cu Kα radiation produced using a long, fine-focus source and a nickel filter. […] Prior to the analysis, a silicon specimen (NIST SRM 640e or 640f) was analyzed to verify the observed position of the Si 111 peak is consistent with the NIST-certified position. […]
XRPD patterns were collected with a PANalytical X'Pert PRO MPD or a PANalytical Empyrean diffractometer using an incident beam of Cu radiation produced using an Optix long, fine-focus source. […] Prior to the analysis, a silicon specimen (NIST SRM 640e or 640f) was analyzed to verify the observed position of the Si 111 peak is consistent with the NIST-certified position. […]

[4] = Approximate solubility of the starting material at 25° C. and 50° C.
Method: About 10 mg of drug substance was weighed to a 2 mL glass vial and aliquot of 20 μL of each solvent will be added to determine solubility at 50° C. Approximate solubility was determined by visual observation.

[5] = as above; remark: listed apart in the source

## CCC(=O)[O][Mn][O]C(=O)CC.c1cc2nc(c1)CN[C@H]1CCCC[C@@H]1NCCN[C@H]1CCCC[C@@H]1NC2 [Form 8429-39-01]
[1]; amorphous material (pale light yellow) after held @ 100° C., 5 min.
  Observation: 3. peach in color

## CCC(=O)[O][Mn][O]C(=O)CC.c1cc2nc(c1)CN[C@H]1CCCC[C@@H]1NCCN[C@H]1CCCC[C@@H]1NC2 [Form 8429-73-01]
[2]
  DSC endotherm onset: endotherm onset of 232 °C

## CCC(=O)[O][Mn][O]C(=O)CC.c1cc2nc(c1)CN[C@H]1CCCC[C@@H]1NCCN[C@H]1CCCC[C@@H]1NC2 [Sample 8429-73-01]
[2]
  DSC minor endotherm: minor endotherm near 197 °C
[3]
  XRPD Result: Form E + peaks

## CCC(=O)[O][Mn][O]C(=O)CC.c1cc2nc(c1)CN[C@H]1CCCC[C@@H]1NCCN[C@H]1CCCC[C@@H]1NC2 [Sample 8429-84-01]
[1]; 8429-79-01 and 8429-79-02, Form A + E combined and stored over P2O5, 5 days
  Result (form): E + A

## CCC(=O)[O][Mn][O]C(=O)CC.c1cc2nc(c1)CN[C@H]1CCCC[C@@H]1NCCN[C@H]1CCCC[C@@H]1NC2 [Sample 8429-97-03]
[1]; P2O5, 4 days
  Result (form): E + A

## CCC(=O)[O][Mn][O]C(=O)CC.c1cc2nc(c1)CN[C@H]1CCCC[C@@H]1NCCN[C@H]1CCCC[C@@H]1NC2 [Sample 8516-07-01]
[1]; 8429-97-01 Forn E + Form A, vacuum dried, ambient, 2 days
  Result (form): peaks

## CCC(=O)[O][Mn][O]C(=O)CC.c1cc2nc(c1)CN[C@H]1CCCC[C@@H]1NCCN[C@H]1CCCC[C@@H]1NC2 [drug substance]
[4]; 1,4-Dioxane
  Solubility: S > 259.5 mg/mL
[4]; 2-Propanol
  Solubility: S > 292.5 mg/mL
[4]; Acetonitrile
  Solubility: S > 315.5 mg/mL
[4]; Dichloromethane
  Solubility: S > 278.5 mg/mL
[4]; Ethanol
  Solubility: S > 281.5 mg/mL
[4]; Methanol
  Solubility: S > 332.0 mg/mL
[4]; Tetrahydrofuran
  Solubility: S > 319.0 mg/mL
[4]; Water
  Solubility: S > 337.5 mg/mL
[5]; 2-Propanol, 25° C.
  Solubility: S > 285.5 mg/mL
[5]; Dichloromethane, 25° C.
  Solubility: S > 297.5 mg/mL
[5]; Ethanol, 25° C.
  Solubility: S > 322.5 mg/mL
[5]; Heptane, 25° C.
  Solubility: S < 3.7 mg/mL
[5]; Heptane, 50° C.
  Solubility: S < 3.7 mg/mL
[5]; Methanol, 25° C.
  Solubility: S > 306.0 mg/mL
[5]; Tetrahydrofuran, 25° C.
  Solubility: S > 319.0 mg/mL
[5]; Water, 25° C.
  Solubility: S > 314.5 mg/mL
